From publication PMC9019904, “AD Informer Set: Chemical tools to facilitate Alzheimer's disease drug discovery” (Alzheimer's & Dementia : Translational Research & Clinical …, 2022)
In brackets after ≈: the same amount, converted by molar mass.

What was measured:
[1] = system: BV2 (mouse microglia) cell line; assay: pHrodo-myelin phagocytosis/cell viability high content imaging assay: phagocytosis signal; assay type: cell-based
How it was run: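 HCI read-out ~22 h post pHrodo-myelin; phagocytosis + viability simultaneously; 3 parameters extracted; intensity up = early apoptosis, down = later apoptosis.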

[2] = Kinetic solubility in aqueous buffer pH 7.4 by total chemiluminescent nitrogen determination (Analiza); details: aqueous buffer, pH 7.4, aqueous buffer, kinetic from dmso stock
[3] = system: BV2 (mouse microglia) cell line; assay: pHrodo-myelin phagocytosis/cell viability high content imaging assay: viability (cell count, nuclear area, nuclear intensity); details: 10 μM, BV2
How it was run: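 Viability was read as total cell count per well by high-content imaging, with mean average nuclear intensity per cell profiling apoptosis (rise early, fall late). Compounds were given at 10 μM for 48 h, pHrodo-myelin being added for the final 20 h. Values are means of two points as % untreated control.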

Row | SMILES | solubility kinetic [2] [µM] | also measured
1 | Cc1cccc(-c2nn3c(c2-c2ccnc4ccc(C(N)=O)cc24)CCC3)n1 [Galunisertib] | 249 (≈ 92.1 µg/mL) | Stimulation of mouse microglial phagocytosis at 10 μM (>150% control) ([1]; BV2, 10 μM): Y (The compound was found to stimulate phagocytosis (response threshold: >150% control) when murine immortalized microglial cells were dosed at 10 μM (Y: yes))
2 | CC(C)(O)c1coc(S(=O)(=O)NC(=O)Nc2c3c(cc4c2CCC4)CCC3)c1 [MCC950] | 119 (≈ 48.2 µg/mL) | 
3 | Cc1cnc(Nc2ccc(F)cc2Cl)nc1-c1c[nH]c(C(=O)N[C@H](CO)c2cccc(Cl)c2)c1 [Vertex 11e] | 1.4 (≈ 0.701 µg/mL) | 
4 | Cc1cc(NC(=O)Nc2ccc(F)c(F)c2)n(-c2ccccc2)n1 [ML 297] | 49.9 (≈ 16.4 µg/mL) | Stimulation of mouse microglial phagocytosis at 10 μM (>150% control) ([1]; 10 μM, BV2): Y (The compound was found to stimulate phagocytosis (response threshold: >150% control) when murine immortalized microglial cells were dosed at 10 μM (Y: yes))
5 | Cc1ccc(-n2nc(C(C)(C)C)cc2NC(=O)Nc2ccc(OCCN3CCOCC3)c3ccccc23)cc1 [Doramapimod (BIRB 796)] | 3.6 (≈ 1.9 µg/mL) | Stimulation of mouse microglial phagocytosis at 10 μM (>150% control) ([1]; 10 μM, BV2): Y (The compound was found to stimulate phagocytosis (response threshold: >150% control) when murine immortalized microglial cells were dosed at 10 μM (Y: yes))
6 | CC/C(=C(\c1ccc(O)cc1)c1ccc(OCCN(C)C)cc1)c1ccccc1 [Afimoxifene] | 19.5 (≈ 7.56 µg/mL) | Stimulation of mouse microglial phagocytosis at 10 μM (>150% control) ([1]; BV2, 10 μM): Y (The compound was found to stimulate phagocytosis (response threshold: >150% control) when murine immortalized microglial cells were dosed at 10 μM (Y: yes))
7 | Cl.O=C(O)Cc1cccc(OCCCN(Cc2cccc(C(F)(F)F)c2Cl)CC(c2ccccc2)c2ccccc2)c1 [GW 3965 HCl] | 4.1 | 
8 | CCn1c(=O)/c(=C2\Sc3ccccc3N2C)s/c1=C\c1ccccn1 [YM-08] | 4.6 (≈ 1.69 µg/mL) | 
9 | O=c1oc2ccccc2cc1-c1cn2cc(Cc3ccc(F)cc3)sc2n1 [iMDK] | < 1.1 | Mouse microglial cytotoxicity at 10 μM (<70% control) [3]: Y (The compound was found to be cytotoxic (cell count threshold: <70% control) when murine immortalized microglial cells were dosed at 10 μM (Y: yes))
10 | COCCOCCOC(=O)N[C@@H](CC(C)C)C(=O)N[C@@H](Cc1ccccc1)C(=O)C(=O)NC1CC1 [SNJ-1945] | 150 (≈ 73.9 µg/mL) | 
11 | O=c1[nH]c(=O)n([C@H]2C[C@H](O)[C@@H](CO)O2)cc1/C=C/Br [RP101 (Brivudine)] | 199 (≈ 66.2 µg/mL) | 
12 | Cc1ccccc1C(=O)Nc1ccc(C(=O)N2CCCC(O)c3cc(Cl)ccc32)c(C)c1 (stereo not shown) [Tolvaptan] | 31.8 (≈ 14.3 µg/mL) | Stimulation of mouse microglial phagocytosis at 10 μM (>150% control) ([1]; BV2, 10 μM): Y (The compound was found to stimulate phagocytosis (response threshold: >150% control) when murine immortalized microglial cells were dosed at 10 μM (Y: yes))
13 | Cc1ccccc1NC(=O)CN1C(=O)N/C(=C/c2ccccc2OCc2ccc(C(=O)O)cc2)C1=O [CHEMBL1416302] | 26.6 (≈ 12.9 µg/mL) | Stimulation of mouse microglial phagocytosis at 10 μM (>150% control) ([1]; BV2 cells, 10 μM): Y (The compound was found to stimulate phagocytosis (response threshold: >150% control) when murine immortalized microglial cells were dosed at 10 μM (Y: yes))
14 | CN1C[C@H](Nc2cnn(C)c(=O)c2Br)C[C@H](c2ccccc2)C1 [GSK4027] | 126 (≈ 47.6 µg/mL) | 
15 | CC(C)c1ccc(/C=N/NC(=O)c2ccc(O)cc2)cc1 [GSK 4716] | 215 (≈ 60.6 µg/mL) | 
